Source: US20250098679A1, “HERBICIDAL PYRIDONE DERIVATIVES” (SYNGENTA CROP PROTECTION AG, priority 2021, published 2025)

Experiments:
Format in all cases: in vivo
Conditions in all cases: evaluated after 13 days
[1] = tested on: Echinochloa crus-galli (ECHCG); experiment: Post-emergence Test, Echinochloa crus-galli (ECHCG); set-up: key to percentage damage caused to the plant, ECHCG (five-point scale): 5=81-100%, 4=61-80%, 3=41-60%, 2=21-40%, 1=0-20% damage
Method in brief: (§1)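 Application was a spray of acetone/water (50:50) with 0.5% Tween 20 onto pots of test species sown in standard soil. Unless otherwise stated, the rate was 1000 g/ha. After 13 days under glasshouse conditions (24/16 °C, 65% humidity), injury was scored from 1 (0-20%) to 5 (81-100%).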

Setaria faberi (SETFA) [2] = experiment: Post-emergence Test, Setaria faberi (SETFA); set-up: key to percentage damage caused to the plant, SETFA (five-point scale): 5=81-100%, 4=61-80%, 3=41-60%, 2=21-40%, 1=0-20% damage
Method in brief: as §1

Zea mays (ZEAMX) [3] = experiment: Pre-emergence Test, Zea mays (ZEAMX)
[4] = tested on: Amaranthus retoflexus (AMARE); experiment: Post-emergence Test, Amaranthus retoflexus (AMARE); set-up: key to percentage damage caused to the plant, AMARE (five-point scale): 5=81-100%, 4=61-80%, 3=41-60%, 2=21-40%, 1=0-20% damage
Method in brief: as §1

Zea mays (ZEAMX) [5] = experiment: Post-emergence Test, Zea mays (ZEAMX); set-up: key to percentage damage caused to the plant, ZEAMX (five-point scale): 5=81-100%, 4=61-80%, 3=41-60%, 2=21-40%, 1=0-20% damage
Method in brief: as §1

[6] = tested on: Ipomoea hederacea (IPOHE); experiment: Pre-emergence Test, Ipomoea hederacea (IPOHE)
[7] = tested on: Amaranthus palmeri (AMAPA); experiment: Pre-emergence Test, Amaranthus palmeri (AMAPA)
[8] = tested on: Echinochloa crus-galli (ECHCG); experiment: Pre-emergence Test, Echinochloa crus-galli (ECHCG)
[9] = tested on: Ipomoea hederacea (IPOHE); experiment: Post-emergence Test, Ipomoea hederacea (IPOHE); set-up: key to percentage damage caused to the plant, IPOHE (five-point scale): 5=81-100%, 4=61-80%, 3=41-60%, 2=21-40%, 1=0-20% damage
Method in brief: as §1

[10] = tested on: Amaranthus palmeri (AMAPA); experiment: Post-emergence Test, Amaranthus palmeri (AMAPA); set-up: key: 5=81-100%, 4=61-80%, 3=41-60%, 2=21-40%, 1=0-20% damage
Method in brief: as §1

[11] = tested on: Amaranthus retoflexus (AMARE); experiment: Pre-emergence Test, Amaranthus retoflexus (AMARE)
Setaria faberi (SETFA) [12] = experiment: Pre-emergence Test, Setaria faberi (SETFA)

| SMILES | percentage damage caused to the plant, ECHCG (five-point scale) ([1]; 250 g/Ha) | percentage damage caused to the plant, ECHCG (five-point scale) ([1]; 1000 g/ha) | percentage damage caused to the plant, SETFA (five-point scale) (Setaria faberi (SETFA) [2]; 250 g/Ha) | percentage damage caused to the plant, SETFA (five-point scale) (Setaria faberi (SETFA) [2]; 1000 g/ha) | Pre-emergence Test ZEAMX, percentage damage caused to the plant (five-point scale) (Zea mays (ZEAMX) [3]; 250 g/Ha (*)) | Pre-emergence Test ZEAMX, percentage damage caused to the plant (five-point scale) (Zea mays (ZEAMX) [3]; 1000 g/ha) | percentage damage caused to the plant, AMARE (five-point scale) ([4]; 250 g/Ha) | percentage damage caused to the plant, AMARE (five-point scale) ([4]; 1000 g/ha) | percentage damage caused to the plant, ZEAMX (five-point scale) (Zea mays (ZEAMX) [5]; 250 g/Ha) | percentage damage caused to the plant, ZEAMX (five-point scale) (Zea mays (ZEAMX) [5]; 1000 g/ha) | Pre-emergence Test IPOHE, percentage damage caused to the plant (five-point scale) ([6]; 250 g/Ha (*)) | Pre-emergence Test IPOHE, percentage damage caused to the plant (five-point scale) ([6]; 1000 g/ha) | Pre-emergence Test AMAPA, percentage damage caused to the plant (five-point scale) ([7]; 250 g/Ha (*)) | Pre-emergence Test AMAPA, percentage damage caused to the plant (five-point scale) ([7]; 1000 g/ha) | Pre-emergence Test ECHCG, percentage damage caused to the plant (five-point scale) ([8]; 250 g/Ha (*)) | Pre-emergence Test ECHCG, percentage damage caused to the plant (five-point scale) ([8]; 1000 g/ha) | percentage damage caused to the plant, IPOHE (five-point scale) ([9]; 250 g/Ha) | percentage damage caused to the plant, IPOHE (five-point scale) ([9]; 1000 g/ha) | percentage damage caused to the plant, AMAPA (five-point scale) ([10]; 250 g/Ha) | percentage damage caused to the plant, AMAPA (five-point scale) ([10]; 1000 g/ha) | further results |
| --- | --- | --- | --- | --- | --- | --- | --- | --- | --- | --- | --- | --- | --- | --- | --- | --- | --- | --- | --- | --- | --- |
| CCn1c(Cn2nc(C)cc2OC(F)F)cc(=O)c(C(=O)O)c1-c1ccc(Cl)c(Cl)c1 [Compound 150, 2-(3,4-dichlorophenyl)-6-[[5-(difluoromethoxy)-3-methyl-pyrazol-1-yl]methyl]-1-ethyl-4-oxo-pyridine-3-carboxylic acid] | 2 (2=21-40%) | 4 (4=61-80%) | 4 (4=61-80%) | 4 (4=61-80%) | 1 (1=0-20%) | 3 (3=41-60%) | 0 | 2 (2=21-40%) | 1 (1=0-20%) | 3 (3=41-60%) | 1 (1=0-20%) | 4 (4=61-80%) | 1 (1=0-20%) | 2 (2=21-40%) | 4 (4=61-80%) | 5 (5=81-100%) | 4 (4=61-80%) | 2 (2=21-40%) | 0 | 1 (1=0-20%) | Pre-emergence Test AMARE, percentage damage caused to the plant (five-point scale) ([11]; 250 g/Ha (*)): 0; Pre-emergence Test AMARE, percentage damage caused to the plant (five-point scale) ([11]; 1000 g/ha): 1 (1=0-20%); Pre-emergence Test SETFA, percentage damage caused to the plant (five-point scale) (Setaria faberi (SETFA) [12]; 250 g/Ha (*)): 5 (5=81-100%); Pre-emergence Test SETFA, percentage damage caused to the plant (five-point scale) (Setaria faberi (SETFA) [12]; 1000 g/ha): 5 (5=81-100%) |
| CCn1c(Cn2nc(Cl)cc2Cl)cc(=O)c(C(=O)O)c1-c1ccc(Cl)c(Cl)c1 [Compound 134, 2-(3,4-dichlorophenyl)-6-[(3,5-dichloropyrazol-1-yl)methyl]-1-ethyl-4-oxo-pyridine-3-carboxylic acid] | 3 (3=41-60%) | 4 (4=61-80%) | 4 (4=61-80%) | 4 (4=61-80%) | 0 | 4 (4=61-80%) | 2 (2=21-40%) | 4 (4=61-80%) | 2 (2=21-40%) | 3 (3=41-60%) | 1 (1=0-20%) | 4 (4=61-80%) | 2 (2=21-40%) | 4 (4=61-80%) | 4 (4=61-80%) | 5 (5=81-100%) | 4 (4=61-80%) | 3 (3=41-60%) | 1 (1=0-20%) | 4 (4=61-80%) | Pre-emergence Test AMARE, percentage damage caused to the plant (five-point scale) ([11]; 250 g/Ha (*)): 1 (1=0-20%); Pre-emergence Test AMARE, percentage damage caused to the plant (five-point scale) ([11]; 1000 g/ha): 2 (2=21-40%); Pre-emergence Test SETFA, percentage damage caused to the plant (five-point scale) (Setaria faberi (SETFA) [12]; 250 g/Ha (*)): 5 (5=81-100%); Pre-emergence Test SETFA, percentage damage caused to the plant (five-point scale) (Setaria faberi (SETFA) [12]; 1000 g/ha): 5 (5=81-100%) |
